Measurements reported in US20260325533A1, “CDK INHIBITOR COMPOUNDS” (ALEKSIA THERAPEUTICS, INC., priority 2023, published 2026).
Like-named read-outs stand apart in the source and are kept apart here.

Assays:
Type in all cases: biochemical
CDK2/CCNE1 = CDK2/CCNE1 (Homo sapiens, UniProt P24941); assay: CDK2 homogeneous time-resolved fluorescence (HTRF) kinase assay; settings: CDK2/CCNE
Method in brief: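 CDK2/CCNE1 (3 nM) preincubated 20 min at 23 °C with compound, then reacted 60 min at 23 °C with 1 mM ATP and 50 nM ULight-4E-BP1 (Thr37/46) peptide. Stopped with EDTA, phospho-peptide detected by Eu-anti-phospho antibody (665 nm or 665/615 ratio). IC50 from 11-point half-log titrations typically starting at 10 μM.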

CDK1/CCNB1 = CDK1/CCNB1 (Homo sapiens, UniProt P06493); assay: CDK1 homogeneous time-resolved fluorescence (HTRF) kinase assay; settings: CDK1/CCNB
Sequence of CDK1/CCNB1 (P06493 whole entry): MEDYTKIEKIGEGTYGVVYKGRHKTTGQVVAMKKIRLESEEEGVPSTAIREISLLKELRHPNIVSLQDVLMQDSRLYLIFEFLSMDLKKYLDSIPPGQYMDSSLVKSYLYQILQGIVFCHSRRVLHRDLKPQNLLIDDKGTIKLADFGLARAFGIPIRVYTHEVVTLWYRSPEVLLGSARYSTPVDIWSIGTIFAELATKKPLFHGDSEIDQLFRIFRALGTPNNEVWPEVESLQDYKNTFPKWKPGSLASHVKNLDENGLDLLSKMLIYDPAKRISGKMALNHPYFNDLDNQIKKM
Sequence of CDK1/CCNB1 (P14635 whole entry partner): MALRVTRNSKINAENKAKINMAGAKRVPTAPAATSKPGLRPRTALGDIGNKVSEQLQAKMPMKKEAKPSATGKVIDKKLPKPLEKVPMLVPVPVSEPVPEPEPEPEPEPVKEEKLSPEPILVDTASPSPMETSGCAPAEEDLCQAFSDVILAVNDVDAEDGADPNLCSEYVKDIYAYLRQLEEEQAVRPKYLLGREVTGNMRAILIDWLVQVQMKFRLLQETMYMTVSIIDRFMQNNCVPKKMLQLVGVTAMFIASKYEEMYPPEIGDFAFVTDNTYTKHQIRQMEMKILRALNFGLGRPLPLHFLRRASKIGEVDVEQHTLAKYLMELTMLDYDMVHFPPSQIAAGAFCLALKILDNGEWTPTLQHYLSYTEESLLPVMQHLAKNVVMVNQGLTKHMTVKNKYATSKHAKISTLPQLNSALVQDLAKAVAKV
Method in brief: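 Read-out: TR-FRET (Eu anti-phospho-4E-BP1 Thr37/46 antibody, 2 nM; 665 nm or 665/615 ratio) after 60 min phosphorylation of 50 nM ULight-peptide by 0.5 nM CDK1/CCNB1 at 1 mM ATP, 23 °C. Compound preincubated 20 min with enzyme; 1% DMSO.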

CDK4/CCND3 = CDK4/CCND3 (Homo sapiens, UniProt P11802); assay: CDK4 homogeneous time-resolved fluorescence (HTRF) kinase assay; settings: CDK4/CCND
Sequence of CDK4/CCND3 (P11802 whole entry): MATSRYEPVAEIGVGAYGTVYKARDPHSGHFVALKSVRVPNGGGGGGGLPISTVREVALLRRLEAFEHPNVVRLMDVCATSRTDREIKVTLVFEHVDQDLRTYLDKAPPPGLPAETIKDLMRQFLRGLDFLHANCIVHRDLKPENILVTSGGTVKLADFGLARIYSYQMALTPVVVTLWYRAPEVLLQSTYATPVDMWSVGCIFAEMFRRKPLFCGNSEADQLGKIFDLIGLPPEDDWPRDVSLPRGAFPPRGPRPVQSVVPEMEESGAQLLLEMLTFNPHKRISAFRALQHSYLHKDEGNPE
Sequence of CDK4/CCND3 (P30281 whole entry partner): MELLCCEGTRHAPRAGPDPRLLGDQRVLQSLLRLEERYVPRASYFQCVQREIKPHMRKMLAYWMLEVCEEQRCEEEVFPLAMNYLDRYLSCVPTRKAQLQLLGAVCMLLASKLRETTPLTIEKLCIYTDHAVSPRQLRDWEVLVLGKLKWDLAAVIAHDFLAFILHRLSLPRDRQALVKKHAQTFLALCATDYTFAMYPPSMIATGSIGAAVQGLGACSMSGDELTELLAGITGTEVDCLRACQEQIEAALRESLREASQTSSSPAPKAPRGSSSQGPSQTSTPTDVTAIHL
Method in brief: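 Inhibition of CDK4/CCND3 (1.5 nM) was measured at high ATP (1 mM) using 50 nM ULight-labelled 4E-BP1 Thr37/46 peptide; detection used 2 nM europium anti-phospho antibody after EDTA quench. IC50 values came from 11-point half-log titrations typically starting at 10 μM.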

CDK6/CCND1 = CDK6/CCND1 (Homo sapiens, UniProt Q00534); assay: CDK6 homogeneous time-resolved fluorescence (HTRF) kinase assay; settings: CDK6/CCND
Sequence of CDK6/CCND1 (Q00534 whole entry): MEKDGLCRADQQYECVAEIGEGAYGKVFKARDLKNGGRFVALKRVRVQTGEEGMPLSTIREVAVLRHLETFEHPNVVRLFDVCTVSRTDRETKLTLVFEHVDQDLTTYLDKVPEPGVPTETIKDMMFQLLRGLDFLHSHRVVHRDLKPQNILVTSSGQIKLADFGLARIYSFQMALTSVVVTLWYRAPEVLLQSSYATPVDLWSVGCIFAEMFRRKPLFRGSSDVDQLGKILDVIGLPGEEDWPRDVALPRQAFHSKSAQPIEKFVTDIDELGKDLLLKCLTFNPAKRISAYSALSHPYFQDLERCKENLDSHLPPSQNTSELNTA
Sequence of CDK6/CCND1 (P24385 whole entry partner): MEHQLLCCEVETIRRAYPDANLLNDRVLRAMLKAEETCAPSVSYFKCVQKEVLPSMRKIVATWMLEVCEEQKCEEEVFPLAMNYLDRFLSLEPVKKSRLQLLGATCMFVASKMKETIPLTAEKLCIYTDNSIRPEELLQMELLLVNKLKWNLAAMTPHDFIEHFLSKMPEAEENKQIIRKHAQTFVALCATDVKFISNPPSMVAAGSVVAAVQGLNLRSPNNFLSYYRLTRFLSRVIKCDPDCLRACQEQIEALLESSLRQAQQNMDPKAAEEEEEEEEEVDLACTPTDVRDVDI
Method in brief: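 1 nM enzyme, 1 mM ATP, 50 nM ULight-4E-BP1 (Thr37/46) peptide, 1% DMSO; 20 min compound preincubation, 60 min reaction, 23 °C. EDTA stop, 2 nM Eu-anti-phospho-4E-BP1 antibody 60 min. TR-FRET 665 nm (or 665/615 ratio); IC50 from 11-point half-log titration, top 10 μM.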

[1] = <25 nM, read-out: CDK2/CCNE IC50 <25 nM
[2] = 25-250 nM marked x, read-out: CDK1/CCNB IC50 25-250 nM
[3] = <25 nM, read-out: CDK4/CCND IC50 <25 nM
[4] = <25 nM, read-out: CDK6/CCND IC50 <25 nM
[5] = 25-250 nM marked x, read-out: CDK4/CCND IC50 25-250 nM
[6] = x = IC50 <25 nM, read-out: CDK2/CCNE IC50 (<25 nM)
[7] = x = IC50 25-250 nM, read-out: CDK1/CCNB IC50 (25-250 nM)
[8] = x = IC50 >250 nM, read-out: CDK4/CCND IC50 (>250 nM column)
[9] = x = IC50 >250 nM, read-out: CDK6/CCND IC50 (>250 nM column)
[10] = x = IC50 >250 nM, read-out: CDK1/CCNB IC50 (>250 nM column)

| Compound | IC50 (CDK2/CCNE1; [1]) | IC50 (CDK6/CCND1; [4]) | IC50 (CDK2/CCNE1; [6]) | IC50 (CDK4/CCND3; [8]) | IC50 (CDK6/CCND1; [9]) | IC50 (CDK1/CCNB1; [10]) | other results |
| --- | --- | --- | --- | --- | --- | --- | --- |
| C=CS(=O)(=O)N1CCC(Nc2cc3c(C4=CCCCC4)nccc3cn2)CC1 [Example 20, 5-(cyclohex-1-en-1-yl)-N-(1-(vinylsulfonyl)piperidin-4-yl)-2,6-naphthyridin-3-amine] | < 25 nM | < 25 nM |  |  |  |  | IC50 (CDK1/CCNB1; [2]): 25 to 250 nM; IC50 (CDK4/CCND3; [3]): < 25 nM |
| CS(=O)(=O)N1CCC(Nc2cc3c(C4CCCCC4)nccc3cn2)CC1 [Example 21, 5-cyclohexyl-N-(1-(methylsulfonyl)piperidin-4-yl)-2,6-naphthyridin-3-amine] | < 25 nM | < 25 nM |  |  |  |  | IC50 (CDK1/CCNB1; [2]): 25 to 250 nM; IC50 (CDK4/CCND3; [3]): < 25 nM |
| CS(=O)(=O)N1CCC(Nc2cc3c(C4CCCC4)nccc3cn2)CC1 [Example 22, 5-cyclopentyl-N-(1-(methylsulfonyl)piperidin-4-yl)-2,6-naphthyridin-3-amine] | < 25 nM | < 25 nM |  |  |  |  | IC50 (CDK1/CCNB1; <25 nM, read-out: CDK1/CCNB IC50 <25 nM): < 25 nM; IC50 (CDK4/CCND3; [3]): < 25 nM |
| CS(=O)(=O)c1ccc(Nc2cc3c(C4CCCC4)nccc3cn2)cc1 [Example 23, 5-cyclopentyl-N-(4-(methylsulfonyl)phenyl)-2,6-naphthyridin-3-amine] | < 25 nM |  |  |  |  |  | IC50 (CDK1/CCNB1; [2]): 25 to 250 nM; IC50 (CDK4/CCND3; [5]): 25 to 250 nM; IC50 (CDK6/CCND1; 25-250 nM marked x, read-out: CDK6/CCND IC50 25-250 nM): 25 to 250 nM |
| C=CS(=O)(=O)N1CCC(Nc2cc3c(-c4cccc(C#N)c4)nccc3cn2)CC1 [Example 24, 3-(7-((1-(vinylsulfonyl)piperidin-4-yl)amino)-2,6-naphthyridin-1-yl)benzonitrile] | < 25 nM | < 25 nM |  |  |  |  | IC50 (CDK1/CCNB1; >250 nM marked x, read-out: CDK1/CCNB IC50 >250 nM): > 250 nM; IC50 (CDK4/CCND3; [5]): 25 to 250 nM |
| COCC1(COC)C(=O)Nc2cc(C#Cc3nccc4cnc(Nc5ccc(S(C)(=O)=O)cc5)cc34)ccc21 [Example 360, 3,3-bis(methoxymethyl)-6-((7-((4-(methylsulfonyl)phenyl)amino)-2,6-naphthyridin-1-yl)ethynyl)indolin-2-one] |  |  | < 25 nM | > 250 nM | > 250 nM |  | IC50 (CDK1/CCNB1; [7]): 25 to 250 nM |
| CC1(C)C(=O)Nc2nc(C#Cc3nccc4cnc(Nc5ccc(S(C)(=O)=O)cc5)cc34)ccc21 [Example 374, 3,3-dimethyl-6-((7-((4-(methylsulfonyl)phenyl)amino)-2,6-naphthyridin-1-yl)ethynyl)-1,3-dihydro-2H-pyrrolo[2,3-b]pyridin-2-one] |  |  | < 25 nM | > 250 nM | > 250 nM |  | IC50 (CDK1/CCNB1; [7]): 25 to 250 nM |
| CS(=O)(=O)c1ccc(Nc2cc3c(C#Cc4cc5c(cc4F)C4(CC4)C(=O)N5)nccc3cn2)cc1 [Example 378, 5′-fluoro-6′-((7-((4-(methylsulfonyl)phenyl)amino)-2,6-naphthyridin-1-yl)ethynyl)spiro[cyclopropane-1,3′-indolin]-2′-one] |  |  | < 25 nM | > 250 nM | > 250 nM | > 250 nM |  |
| CCC1(CC)C(=O)Nc2cc(C#Cc3nccc4cnc(Nc5ccc(S(C)(=O)=O)cc5C)cc34)ccc21 [Example 395, 3,3-diethyl-6-((7-((2-methyl-4-(methylsulfonyl)phenyl)amino)-2,6-naphthyridin-1-yl)ethynyl)indolin-2-one] |  |  | < 25 nM | > 250 nM | > 250 nM | > 250 nM |  |
| Nc1ncccc1C#Cc1nccc2cnc(Nc3ccc(S(=O)(=O)C4CCC4)cc3)cc12 [Example 398, 5-((2-aminopyridin-3-yl)ethynyl)-N-(4-(cyclobutylsulfonyl)phenyl)-2,6-naphthyridin-3-amine] |  |  |  | > 250 nM | > 250 nM | > 250 nM | IC50 (CDK2/CCNE1; x = IC50 25-250 nM, read-out: CDK2/CCNE IC50 (25-250 nM)): 25 to 250 nM |
| Cc1cc(Nc2cc3c(C#Cc4ccc5c(c4)NC(=O)C5(C)C)nccc3cn2)ccc1S(C)(=O)=O [Example 406, 3,3-dimethyl-6-((7-((3-methyl-4-(methylsulfonyl)phenyl)amino)-2,6-naphthyridin-1-yl)ethynyl)indolin-2-one] |  |  | < 25 nM | > 250 nM | > 250 nM | > 250 nM |  |
